From patent US4864023A, “Pyrido(3,2,1-IJ)-1,3,4-benzoxadiazine derivatives” (priority 1988, dated 1989)
Values after ≈ are worked out from the molar mass of the structure shown. Like-named read-outs stand apart in the source and are kept apart here.

Key:
Assay in all cases: in vitro antibacterial activity, standard agar dilution method
Format in all cases: cell-based
[1] = test system: Staphylococcus epidermidis NR 2942; conditions: NR2942, aerobic, read-out: minimum inhibitory concentration (MIC)
[2] = test system: Enterobacter aerogenes NR 2945; conditions: Klebsiella aerogenes, NR2945, aerobic, read-out: minimum inhibitory concentration (MIC)
[3] = test system: Klebsiella pneumoniae FDA PCI 602; conditions: FDAPCI602, aerobic, read-out: minimum inhibitory concentration (MIC)
[4] = test system: Alcaligenes faecalis IFO 13111; conditions: IFO13111, aerobic, read-out: minimum inhibitory concentration (MIC)
[5] = test system: Staphylococcus aureus NR 2855
[6] = test system: Pseudomonas aeruginosa A3; conditions: aerobic, read-out: minimum inhibitory concentration (MIC)
[7] = test system: Pseudomonas stutzeri IFO 12695; conditions: Stutzerimonas stutzeri, IFO12695, aerobic, read-out: minimum inhibitory concentration (MIC)
[8] = test system: Serratia marcescens IFO 12648; conditions: IFO12648, aerobic, read-out: minimum inhibitory concentration (MIC)
[9] = test system: Proteus rettgeri ATCC 14505; conditions: Providencia rettgeri, ATCC14505, aerobic, read-out: minimum inhibitory concentration (MIC)
[10] = test system: Enterobacter cloacae NR 2946; conditions: NR2946, aerobic, read-out: minimum inhibitory concentration (MIC)
[11] = test system: Escherichia coli NR 2630; conditions: NR2630; Escherichia coli NR 2630; aerobic; agar dilution; read-out: minimum inhibitory concentration (MIC)
[12] = test system: Staphylococcus aureus FDA 209P JC-1; conditions: FDA209P, read-out: minimum inhibitory concentration (MIC)
[13] = test system: Bacillus subtilis PCI 219; conditions: PCI219, aerobic, read-out: minimum inhibitory concentration (MIC)
[14] = test system: Staphylococcus aureus Smith; conditions: Staphylococcus aureus Smith; aerobic; agar dilution; read-out: minimum inhibitory concentration (MIC)
[15] = test system: Bordetella bronchiseptica ATCC 4617; conditions: ATCC4617, aerobic, read-out: minimum inhibitory concentration (MIC)
[16] = test system: Enterococcus faecalis NR 2943; conditions: NR2943, aerobic, read-out: minimum inhibitory concentration (MIC)
[17] = test system: Proteus vulgaris OX19 ATCC 6898; conditions: ATCC6898, aerobic, read-out: minimum inhibitory concentration (MIC)
[18] = test system: Salmonella typhimurium IFO 12529; conditions: Salmonella enterica, aerobic, read-out: minimum inhibitory concentration (MIC)
[19] = test system: Citrobacter freundii IFO 12681; conditions: IFO12681, aerobic, read-out: minimum inhibitory concentration (MIC)
[20] = test system: Staphylococcus epidermidis IFO 12993; conditions: IFO12993, aerobic, read-out: minimum inhibitory concentration (MIC)
[21] = test system: Escherichia coli NIHJ JC-2; conditions: NIHJJC2, aerobic, read-out: minimum inhibitory concentration (MIC)
[22] = test system: Pseudomonas aeruginosa NR 2950; conditions: NR2950, aerobic, read-out: minimum inhibitory concentration (MIC)
[23] = NR2855, Staphylococcus aureus NR 2855, aerobic, agar dilution, read-out: minimum inhibitory concentration (MIC)
[24] = Staphylococcus aureus FDA 209P JC-1, aerobic, agar dilution
[25] = Staphylococcus aureus, NR2855, read-out: minimum inhibitory concentration (MIC)

Row | Structure (SMILES) | MIC [1] | MIC [2] | MIC [3] | MIC [4] | MIC [5, 23] | MIC [6] | MIC [7] | MIC [8] | MIC [9] | MIC [10] | MIC [13] | MIC [14] | MIC [15] | MIC [16] | MIC [17] | MIC [18] | MIC [19] | MIC [20] | MIC [21] | MIC [22] | also measured
1 | CN1COc2c(N3CCNC(c4ccccc4)C3)c(F)cc3c(=O)c(C(=O)O)cn1c23 (stereo not drawn) [Example 8] | 0.39 µg/mL (≈ 0.919 µM) | 0.025 µg/mL (≈ 0.0589 µM) | 0.2 µg/mL (≈ 0.471 µM) | 0.78 µg/mL (≈ 1.84 µM) | 0.39 µg/mL (≈ 0.919 µM) | 0.39 µg/mL (≈ 0.919 µM) | 0.025 µg/mL (≈ 0.0589 µM) | 0.1 µg/mL (≈ 0.236 µM) | 0.39 µg/mL (≈ 0.919 µM) | 0.05 µg/mL (≈ 0.118 µM) | 0.025 µg/mL (≈ 0.0589 µM) | 0.2 µg/mL (≈ 0.471 µM) | 0.39 µg/mL (≈ 0.919 µM) | 6.25 µg/mL (≈ 14.7 µM) | 0.025 µg/mL (≈ 0.0589 µM) | 0.025 µg/mL (≈ 0.0589 µM) | 0.025 µg/mL (≈ 0.0589 µM) | 0.39 µg/mL (≈ 0.919 µM) | 0.05 µg/mL (≈ 0.118 µM) | 3.13 µg/mL (≈ 7.37 µM) | MIC [11]: 0.013 µg/mL (≈ 0.0306 µM); MIC [12, 24]: 0.39 µg/mL (≈ 0.919 µM)
2 | CN1COc2c(N3CCOCC3)c(F)cc3c(=O)c(C(=O)O)cn1c23 [Example 9, 9-Fluoro-3-methyl-10-morpholino-7-oxo-2,3-dihydro-7H-pyrido[3,2,1-ij]-1,3,4-benzoxadiazine-6-carboxylic acid] | 0.0065 µg/mL (≈ 0.0186 µM) | 0.0065 µg/mL (≈ 0.0186 µM) | 3.13 µg/mL (≈ 8.96 µM) | 6.25 µg/mL (≈ 17.9 µM) | 0.0065 µg/mL (≈ 0.0186 µM) | 6.25 µg/mL (≈ 17.9 µM) | ≤ 0.0008 µg/mL | 0.78 µg/mL (≈ 2.23 µM) | 1.56 µg/mL (≈ 4.47 µM) | 0.013 µg/mL (≈ 0.0372 µM) | ≤ 0.0008 µg/mL | 0.0033 µg/mL (≈ 0.00945 µM) | 1.56 µg/mL (≈ 4.47 µM) | 12.5 µg/mL (≈ 35.8 µM) | ≤ 0.0008 µg/mL | 0.0033 µg/mL (≈ 0.00945 µM) | 0.39 µg/mL (≈ 1.12 µM) | 0.2 µg/mL (≈ 0.573 µM) | 0.1 µg/mL (≈ 0.286 µM) | 12.5 µg/mL (≈ 35.8 µM) | MIC [11]: ≤ 0.0008 µg/mL; MIC [12, 24]: 0.2 µg/mL (≈ 0.573 µM)
3 | CN1COc2c(N3CCC(O)CC3)c(F)cc3c(=O)c(C(=O)O)cn1c23 [Example 13, 9-fluoro-10-(4-hydroxy-1-piperidyl)-3-methyl-7-oxo-2,3-dihydro-7H-pyrido[3,2,1-ij]-1,3,4-benzoxadiazine-6-carboxylic acid] | 0.05 µg/mL (≈ 0.138 µM) | 0.2 µg/mL (≈ 0.55 µM) | 0.78 µg/mL (≈ 2.15 µM) | 3.13 µg/mL (≈ 8.61 µM) | 0.05 µg/mL (≈ 0.138 µM) | 1.56 µg/mL (≈ 4.29 µM) | 0.1 µg/mL (≈ 0.275 µM) | 0.39 µg/mL (≈ 1.07 µM) | 0.78 µg/mL (≈ 2.15 µM) | 0.39 µg/mL (≈ 1.07 µM) | ≤ 0.0008 µg/mL | 0.025 µg/mL (≈ 0.0688 µM) | 0.78 µg/mL (≈ 2.15 µM) | 3.13 µg/mL (≈ 8.61 µM) | 0.05 µg/mL (≈ 0.138 µM) | 0.1 µg/mL (≈ 0.275 µM) | 0.39 µg/mL (≈ 1.07 µM) | 0.1 µg/mL (≈ 0.275 µM) | 0.39 µg/mL (≈ 1.07 µM) | 6.25 µg/mL (≈ 17.2 µM) | MIC [12, 24]: 0.1 µg/mL (≈ 0.275 µM)
4 | CN1COc2c(N3CCN(CCO)CC3)c(F)cc3c(=O)c(C(=O)O)cn1c23 [Example 15] | 0.78 µg/mL (≈ 1.99 µM) | 0.05 µg/mL (≈ 0.127 µM) | 0.39 µg/mL (≈ 0.994 µM) | 3.13 µg/mL (≈ 7.98 µM) | 0.78 µg/mL (≈ 1.99 µM) | 0.78 µg/mL (≈ 1.99 µM) | 0.05 µg/mL (≈ 0.127 µM) | 0.39 µg/mL (≈ 0.994 µM) | 0.78 µg/mL (≈ 1.99 µM) | 0.1 µg/mL (≈ 0.255 µM) | 0.05 µg/mL (≈ 0.127 µM) | 0.39 µg/mL (≈ 0.994 µM) | 0.78 µg/mL (≈ 1.99 µM) | 6.25 µg/mL (≈ 15.9 µM) | 0.025 µg/mL (≈ 0.0637 µM) | 0.05 µg/mL (≈ 0.127 µM) | 0.05 µg/mL (≈ 0.127 µM) | 0.78 µg/mL (≈ 1.99 µM) | 0.1 µg/mL (≈ 0.255 µM) | 3.13 µg/mL (≈ 7.98 µM) | MIC [12, 24]: 0.78 µg/mL (≈ 1.99 µM)
5 | CC(=O)NCC1CCN(c2c(F)cc3c(=O)c(C(=O)O)cn4c3c2OCN4C)C1 (stereo not drawn) [Example 19, 10-[3-(acetylaminomethyl)-1-pyrrolidinyl]-9-fluoro-3-methyl-7-oxo-2,3-dihydro-7H-pyrido[3,2,1-ij]-1,3,4-benzoxadiazine-6-carboxylic acid] | 0.39 µg/mL (≈ 0.964 µM) | 1.56 µg/mL (≈ 3.86 µM) | 6.25 µg/mL (≈ 15.5 µM) | 6.25 µg/mL (≈ 15.5 µM) |  | 6.25 µg/mL (≈ 15.5 µM) | 0.39 µg/mL (≈ 0.964 µM) | 3.13 µg/mL (≈ 7.74 µM) | 3.13 µg/mL (≈ 7.74 µM) | 1.56 µg/mL (≈ 3.86 µM) | 0.05 µg/mL (≈ 0.124 µM) | 0.2 µg/mL (≈ 0.495 µM) | 6.25 µg/mL (≈ 15.5 µM) | 6.25 µg/mL (≈ 15.5 µM) | 0.39 µg/mL (≈ 0.964 µM) | 1.56 µg/mL (≈ 3.86 µM) | 1.56 µg/mL (≈ 3.86 µM) | 0.39 µg/mL (≈ 0.964 µM) | 1.56 µg/mL (≈ 3.86 µM) | 25 µg/mL (≈ 61.8 µM) | MIC [5, 25]: 0.39 µg/mL (≈ 0.964 µM); MIC [11]: 0.39 µg/mL (≈ 0.964 µM); MIC ([12]; Staphylococcus aureus): 0.39 µg/mL (≈ 0.964 µM)
6 | CN1CCN(c2c(F)cc3c(=O)c(C(=O)O)cn4c3c2OC(CO)N4C)CC1 (stereo not drawn) [Example 27] | 6.25 µg/mL (≈ 15.9 µM) | 0.2 µg/mL (≈ 0.51 µM) | 3.13 µg/mL (≈ 7.98 µM) | 50 µg/mL (≈ 127 µM) | 12.5 µg/mL (≈ 31.9 µM) | 3.13 µg/mL (≈ 7.98 µM) | 0.2 µg/mL (≈ 0.51 µM) | 3.13 µg/mL (≈ 7.98 µM) | 12.5 µg/mL (≈ 31.9 µM) | 0.78 µg/mL (≈ 1.99 µM) | 0.39 µg/mL (≈ 0.994 µM) | 1.56 µg/mL (≈ 3.98 µM) | 25 µg/mL (≈ 63.7 µM) | 50 µg/mL (≈ 127 µM) | 0.2 µg/mL (≈ 0.51 µM) | 0.39 µg/mL (≈ 0.994 µM) | 0.2 µg/mL (≈ 0.51 µM) | 6.25 µg/mL (≈ 15.9 µM) | 0.78 µg/mL (≈ 1.99 µM) | 25 µg/mL (≈ 63.7 µM) | MIC [12, 24]: 1.56 µg/mL (≈ 3.98 µM)
7 | CC(=O)N1CCN(c2c(F)cc3c(=O)c(C(=O)O)cn4c3c2OCN4C)CC1 [Example 50, 10-(4-acetyl-1-piperazinyl)-9-fluoro-3-methyl-7-oxo-2,3-dihydro-7H-pyrido[3,2,1-ij]-1,3,4-benzoxadiazine-6-carboxylic acid] | 0.2 µg/mL (≈ 0.512 µM) | 0.78 µg/mL (≈ 2 µM) | 6.25 µg/mL (≈ 16 µM) | 12.5 µg/mL (≈ 32 µM) |  | 6.25 µg/mL (≈ 16 µM) |  | 3.13 µg/mL (≈ 8.02 µM) | 6.25 µg/mL (≈ 16 µM) | 1.56 µg/mL (≈ 4 µM) | 0.0065 µg/mL (≈ 0.0167 µM) | 0.1 µg/mL (≈ 0.256 µM) | 3.13 µg/mL (≈ 8.02 µM) | 3.13 µg/mL (≈ 8.02 µM) | 0.39 µg/mL (≈ 0.999 µM) | 0.78 µg/mL (≈ 2 µM) | 3.13 µg/mL (≈ 8.02 µM) | 0.39 µg/mL (≈ 0.999 µM) | 1.56 µg/mL (≈ 4 µM) | 25 µg/mL (≈ 64 µM) | MIC [5, 25]: 0.39 µg/mL (≈ 0.999 µM); MIC [11]: 0.2 µg/mL (≈ 0.512 µM); MIC ([12]; Staphylococcus aureus): 0.39 µg/mL (≈ 0.999 µM)
